The text below walks through data of ChEMBL document CHEMBL2331555 (ACS Med Chem Lett, 2013).

In brackets after ≈: the same amount, converted by molar mass.

The nature of one data set: in vitro. Conditions: dog, MDCK.
A short description of data set [1]: in vivo. Conditions: rat, po.
Data set [2] can be described thus: in vivo. Conditions: rat.

One may read the Papp as the rate of passage across a membrane or cell layer, normalised by area and donor concentration. One may read the solubility (kinetic) as solubility judged after dilution from a stock solution rather than from solid. The bioavailability is dose-corrected exposure relative to a reference, in per cent. A higher bioavailability goes with much systemic uptake. Usually Vd stands for the apparent volume that relates the amount in the body to the concentration in plasma or blood. Low readings indicate little distribution into tissue, high ones wide distribution into tissue.

As for `Cc1ccc(-c2ccc3ncc4c(c3n2)n(C2CCN(C(=O)CO)CC2)c(=O)n4C)cn1`, the Papp in the data set “in vitro” turned out to be 18.2 ×10⁻⁶ cm/s. As for `CC(=O)N1CCC(n2c(=O)n(C)c3cnc4ccc(-c5cccc6[nH]ncc56)nc4c32)CC1`, the solubility (kinetic) in the data set “physchem” stood at 55.5 µM (≈ 24.5 µg/mL). For the same molecule, the Papp in “in vitro” was found to be 8.56 ×10⁻⁶ cm/s. Take `COc1ccc(-c2ccc3ncc4c(c3n2)n([C@H]2CC[C@H](OCCO)CC2)c(=O)n4C)cn1`: the solubility (kinetic) in “physchem” is 117 µM (≈ 52.6 µg/mL). This molecule gave a Papp in “in vitro” of 14.3 ×10⁻⁶ cm/s. In turn, `CC(=O)N1CCC(n2c(=O)n(C)c3cnc4ccc(-c5ccc(C)nc5)nc4c32)CC1` yielded a solubility (kinetic) in “physchem” of 455 µM (≈ 190 µg/mL). The molecule also gave a Papp in “in vitro” of 19.5 ×10⁻⁶ cm/s.

In turn, `COc1ccc(-c2ccc3ncc4c(c3n2)n(-c2ccc(C(C)(C)C#N)cc2)c(=O)n4C)cn1` had a kinetic solubility in the data set “physchem” of 2 µM (≈ 0.901 µg/mL). For the same molecule, the Papp in “in vitro” amounted to 0.305 ×10⁻⁶ cm/s. Turning to `Cc1ccc(-c2ccc3ncc4c(c3n2)n(C2CCN(C(=O)C(C)(C)O)CC2)c(=O)n4C)cn1`, the Papp in “in vitro” is 21.9 ×10⁻⁶ cm/s. Consider `CC(=O)N1CCC(n2c(=O)n(C)c3cnc4ccc(-c5cnc6[nH]ncc6c5)nc4c32)CC1`, for which, in the data set “in vitro”, the apparent permeability (Papp) came out at 3.97 ×10⁻⁶ cm/s. `COCC(=O)N1CCC(n2c(=O)n(C)c3cnc4ccc(-c5ccc(C)nc5)nc4c32)CC1` showed a Papp in the data set “in vitro” of 20.2 ×10⁻⁶ cm/s. `COc1ccc(-c2ccc3ncc4c(c3n2)n(C2CCN(C(C)=O)CC2)c(=O)n4C)cn1`: the kinetic solubility in the data set “physchem” amounted to 22 µM (≈ 9.51 µg/mL). In “in vitro”, this molecule displayed a Papp of 16.3 ×10⁻⁶ cm/s. For `COc1ccc(-c2ccc3ncc4c(c3n2)n([C@H]2CC[C@H](O)CC2)c(=O)n4C)cn1` the same measures were 22.2 µM (≈ 9 µg/mL) and 14.3 ×10⁻⁶ cm/s.

Regarding `COc1ccc(-c2ccc3ncc4c(c3n2)n(C2CCN(C)CC2)c(=O)n4C)cn1`, the bioavailability in the data set “in vivo [1]” was determined as 76%. The same molecule showed a Vd in “in vivo [2]” of 4.46 L/kg. The same molecule displayed a Papp in the data set “in vitro” of 6.65 ×10⁻⁶ cm/s. Consider `C[C@H](O)C(=O)N1CCC(n2c(=O)n(C)c3cnc4ccc(-c5cccc6[nH]ncc56)nc4c32)CC1`, for which the kinetic solubility in “physchem” was 444 µM (≈ 209 µg/mL). For the same molecule, the Papp in the data set “in vitro” was determined as 4.6 ×10⁻⁶ cm/s.
